Data: US6858591B2, “Antibiotic AA 896 analogs” (Wyeth Holdings Corporation, priority 2001, dated 2005)
≈ marks a conversion by molar mass, not a printed value. Where two headings read alike, the source gives them in different places.

Assays:
Assay in all cases: In vitro MIC, broth dilution
Type in all cases: cell-based
[1] = test system: P. aeruginosa GC 2214; details: Pseudomonas aeruginosa, GC2214; P. aeruginosa GC 2214; read-out: MIC
[2] = test system: P. aeruginosa GC 4532; details: Pseudomonas aeruginosa, GC4532; P. aeruginosa GC 4532; read-out: MIC
[3] = test system: E. coli GC 4560; details: Escherichia coli, GC4560; E. coli GC 4560; read-out: MIC
[4] = test system: E. coli GC 3226; details: Escherichia coli, GC3226; E. coli GC 3226; read-out: MIC
[5] = test system: M. morganii GC 4531; details: Morganella morganii, GC4531; M. morganii GC 4531; read-out: MIC
[6] = test system: E. cloacae GC 3783; details: Enterobacter cloacae, GC3783; E. cloacae GC 3783; read-out: MIC
[7] = test system: S. marcescens GC 4077; details: Serratia marcescens, GC4077; S. marcescens GC 4077; read-out: MIC
[8] = test system: C. albicans GC 3066; details: Candida albicans, GC3066; C. albicans GC 3066; read-out: MIC
[9] = test system: E. coli GC 2203; details: Escherichia coli, GC2203; E. coli GC 2203; read-out: MIC
[10] = test system: K. pneumoniae GC 4534; details: Klebsiella pneumoniae, GC4534; K. pneumoniae GC 4534; read-out: MIC
[11] = test system: E. coli GC 4559; details: Escherichia coli, GC4559; E. coli GC 4559; read-out: MIC
[12] = test system: CNS GC 4537
Method in brief: (§1)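 Broth dilution per NCCLS M7-A recommendations in Mueller-Hinton II medium, inoculum 5×10^5 CFU/ml, antibiotic range 64-0.06 μg/ml. Plates incubated 18 hours at 35° C in ambient air; MIC taken as lowest concentration inhibiting growth.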

[13] = test system: E. faecalis GC 2242; details: Enterococcus faecalis, GC2242; E. faecalis GC 2242; read-out: MIC
Method in brief: as §1

[14] = test system: S. aureus GC 1131; details: Staphylococcus aureus, GC1131; S. aureus GC 1131; read-out: MIC
Method in brief: as §1

[15] = test system: E. faecalis GC 4555; details: Enterococcus faecalis, GC4555; E. faecalis GC 4555; read-out: MIC
Method in brief: as §1

[16] = test system: CNS GC 4538
Method in brief: as §1

[17] = test system: S. aureus GC 4536; details: Staphylococcus aureus, GC4536; S. aureus GC 4536; read-out: MIC
Method in brief: as §1

[18] = test system: CNS GC 4547
Method in brief: as §1

[19] = test system: E. faecalis GC 842; details: Enterococcus faecalis, GC842; E. faecalis GC 842; read-out: MIC
Method in brief: as §1

[20] = test system: S. aureus GC 2216; details: Staphylococcus aureus, GC2216; S. aureus GC 2216; read-out: MIC
Method in brief: as §1

## CCOC(=O)C(NCCCNC(=O)[C@@H](N)[C@H](C)O)[C@@H](O)[C@H]1O[C@@H](n2ccc(=O)[nH]c2=O)[C@H](OC(C)=O)[C@@H]1OC(C)=O (stereo partly drawn) [Example 33, Ethyl (3R)-2-[(3-{[(2S,3S)-2-amino-3-hydroxybutanoyl]amino}propyl)amino]-3-[(2R,3R,4R,5R)-3,4-bis(acetyloxy)-5-(2,4-dioxo-3,4-dihydro-1(2H)-pyrimidinyl)tetrahydro-2-furanyl]-3-hydroxypropanoate]
[1]
  MIC: > 128 µg/mL
[2]
  MIC: > 128 µg/mL
[3]
  MIC: > 128 µg/mL
[4]
  MIC: > 128 µg/mL
[5]
  MIC: > 128 µg/mL
[6]
  MIC: > 128 µg/mL
[7]
  MIC: > 128 µg/mL
[8]
  MIC: > 128 µg/mL
[9]
  MIC: > 128 µg/mL
[10]
  MIC: > 128 µg/mL
[11]
  MIC: > 128 µg/mL
[12]; CNS GC 4537, read-out: MIC
  MIC: > 128 µg/mL
[13]
  MIC: > 128 µg/mL
[14]
  MIC: > 128 µg/mL
[15]
  MIC: > 128 µg/mL
[16]; CNS GC 4538, read-out: MIC
  MIC: > 128 µg/mL
[17]
  MIC: > 128 µg/mL
[18]; CNS GC 4547, read-out: MIC
  MIC: > 128 µg/mL
[19]
  MIC: > 128 µg/mL
[20]
  MIC: > 128 µg/mL

## CCOC(=O)C(NCCCNC(=O)[C@@H](NC(=O)[C@H](CCCNC(=N)N[N+](=O)O)NC(=O)N[C@H](C(=O)OCc1ccccc1)C(C)C)C(C)O)C(O)[C@H]1O[C@H](n2ccc(=O)[nH]c2=O)[C@H](OC(C)=O)[C@@H]1OC(C)=O (stereo partly drawn) [Example 34, 16-Benzyl 2-ethyl (1R,9S,12S,16S)-1-[(2R,3R,4R,5S)-3,4-bis(acetyloxy)-5-(2,4-dioxo-3,4-dihydro-1(2H)-pyrimidinyl)tetrahydro-2-furanyl]-12-(3-{[(2,2-dioxido-2lambda˜1˜-diazanyl)(imino)methyl]amino}propyl)-1-hydroxy-9-[(1S)-1-hydroxyethyl]-17-methyl-8,11,14-trioxo-3,7,10,13,15-pentaazaoctadecane-2,16-dicarboxylate]
[1]
  MIC: 128 µg/mL
[2]
  MIC: 128 µg/mL
[3]
  MIC: > 128 µg/mL
[4]
  MIC: > 128 µg/mL
[5]
  MIC: > 128 µg/mL
[6]
  MIC: > 128 µg/mL
[7]
  MIC: > 128 µg/mL
[8]
  MIC: 128 µg/mL
[9]
  MIC: > 128 µg/mL
[10]
  MIC: > 128 µg/mL
[11]
  MIC: > 128 µg/mL
[12]
  MIC: > 128 µg/mL
[13]
  MIC: 128 µg/mL
[14]
  MIC: > 128 µg/mL
[15]
  MIC: > 128 µg/mL
[16]
  MIC: > 128 µg/mL
[17]
  MIC: > 128 µg/mL
[18]
  MIC: > 128 µg/mL
[19]
  MIC: > 128 µg/mL
[20]
  MIC: > 128 µg/mL

## CCOC(=O)C(NCCCNC(=O)[C@@H](NC(=O)[C@H](CCCNC(=N)N[N+](=O)[O-])NC(=O)N[C@H](C(=O)OCc1ccccc1)C(C)C)C(C)O)C(O)[C@H]1O[C@@H](n2ccc(=O)[nH]c2=O)[C@H](OC(C)=O)[C@@H]1OC(C)=O (some centres unmarked) [Example 35]
[1]
  MIC: 128 µg/mL (≈ 125 µM)
[2]
  MIC: 128 µg/mL (≈ 125 µM)
[3]
  MIC: > 128 µg/mL
[4]
  MIC: > 128 µg/mL
[5]
  MIC: 128 µg/mL (≈ 125 µM)
[6]
  MIC: > 128 µg/mL
[7]
  MIC: > 128 µg/mL
[8]
  MIC: 128 µg/mL (≈ 125 µM)
[9]
  MIC: > 128 µg/mL
[10]
  MIC: > 128 µg/mL
[11]
  MIC: > 128 µg/mL
[12]
  MIC: > 128 µg/mL
[13]
  MIC: 128 µg/mL (≈ 125 µM)
[14]
  MIC: > 128 µg/mL
[15]
  MIC: > 128 µg/mL
[16]
  MIC: > 128 µg/mL
[17]
  MIC: > 128 µg/mL
[18]
  MIC: > 128 µg/mL
[19]
  MIC: > 128 µg/mL
[20]
  MIC: > 128 µg/mL

## CCOC(=O)C(NCCCNC(=O)[C@@H](NC(=O)OCc1ccccc1)[C@@H](O)C(C)C)[C@@H](O)[C@H]1O[C@@H](n2ccc(=O)[nH]c2=O)[C@H](OC(C)=O)[C@@H]1OC(C)=O (stereo partly drawn) [Example 36, Ethyl (5S)-12-[(R)-[(2R,3R,4R,5R)-3,4-bis(acetyloxy)-5-(2,4-dioxo-3,4-dihydro-1(2H)-pyrimidinyl)tetrahydro-2-furanyl](hydroxy)methyl]-5-[(1S)-1-hydroxy-2-methylpropyl]-3,6-dioxo-1-phenyl-2-oxa-4,7,11-triazatridecan-13-oate]
[1]
  MIC: 128 µg/mL (≈ 171 µM)
[2]
  MIC: 128 µg/mL (≈ 171 µM)
[3]
  MIC: > 128 µg/mL
[4]
  MIC: > 128 µg/mL
[5]
  MIC: 128 µg/mL (≈ 171 µM)
[6]
  MIC: > 128 µg/mL
[7]
  MIC: > 128 µg/mL
[8]
  MIC: 128 µg/mL (≈ 171 µM)
[9]
  MIC: > 128 µg/mL
[10]
  MIC: > 128 µg/mL
[11]
  MIC: > 128 µg/mL
[12]; CNS GC 4537, read-out: MIC
  MIC: > 128 µg/mL
[13]
  MIC: 128 µg/mL (≈ 171 µM)
[14]
  MIC: > 128 µg/mL
[15]
  MIC: > 128 µg/mL
[16]; CNS GC 4538, read-out: MIC
  MIC: > 128 µg/mL
[17]
  MIC: > 128 µg/mL
[18]; CNS GC 4547, read-out: MIC
  MIC: > 128 µg/mL
[19]
  MIC: > 128 µg/mL
[20]
  MIC: > 128 µg/mL
